Here are results for 33 compounds from ChEMBL document CHEMBL2401705, “Discovery of triazines as potent, selective and orally active PDE4 inhibitors” (Bioorg Med Chem Lett, 2013).

For data set [1], the target named is 3',5'-cyclic-AMP phosphodiesterase 4A (Homo sapiens, UniProt P27815). Nature of the data set: Inhibition of human full length PDE4A4 expressed in baculovirus infected sf21 cells.
A short description of data set [2]: Intrinsic clearance in rat liver microsomes. The data set is classed as ADME, Microsome. The note with it: read-out: CLH.
The target of data set [3] is High affinity 3',5'-cyclic-AMP phosphodiesterase 7A (Homo sapiens, UniProt Q13946). Nature of the data set: Inhibition of human full length PDE7A1 expressed in baculovirus infected sf21 cells.
Sequence of High affinity 3',5'-cyclic-AMP phosphodiesterase 7A (Q13946 whole entry): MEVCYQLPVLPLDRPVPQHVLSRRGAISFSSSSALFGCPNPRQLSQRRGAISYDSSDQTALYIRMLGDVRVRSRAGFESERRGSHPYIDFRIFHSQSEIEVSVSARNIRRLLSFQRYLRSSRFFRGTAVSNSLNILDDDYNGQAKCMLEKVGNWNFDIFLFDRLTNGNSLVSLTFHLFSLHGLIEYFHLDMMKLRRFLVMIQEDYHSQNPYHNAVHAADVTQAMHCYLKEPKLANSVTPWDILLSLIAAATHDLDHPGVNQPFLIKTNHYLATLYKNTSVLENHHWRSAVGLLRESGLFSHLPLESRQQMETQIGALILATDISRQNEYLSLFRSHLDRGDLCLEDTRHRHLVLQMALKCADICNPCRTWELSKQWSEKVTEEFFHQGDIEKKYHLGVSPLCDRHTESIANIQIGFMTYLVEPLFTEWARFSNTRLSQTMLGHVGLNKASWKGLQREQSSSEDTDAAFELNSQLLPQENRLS

Sequence of 3',5'-cyclic-AMP phosphodiesterase 4A (P27815 whole entry): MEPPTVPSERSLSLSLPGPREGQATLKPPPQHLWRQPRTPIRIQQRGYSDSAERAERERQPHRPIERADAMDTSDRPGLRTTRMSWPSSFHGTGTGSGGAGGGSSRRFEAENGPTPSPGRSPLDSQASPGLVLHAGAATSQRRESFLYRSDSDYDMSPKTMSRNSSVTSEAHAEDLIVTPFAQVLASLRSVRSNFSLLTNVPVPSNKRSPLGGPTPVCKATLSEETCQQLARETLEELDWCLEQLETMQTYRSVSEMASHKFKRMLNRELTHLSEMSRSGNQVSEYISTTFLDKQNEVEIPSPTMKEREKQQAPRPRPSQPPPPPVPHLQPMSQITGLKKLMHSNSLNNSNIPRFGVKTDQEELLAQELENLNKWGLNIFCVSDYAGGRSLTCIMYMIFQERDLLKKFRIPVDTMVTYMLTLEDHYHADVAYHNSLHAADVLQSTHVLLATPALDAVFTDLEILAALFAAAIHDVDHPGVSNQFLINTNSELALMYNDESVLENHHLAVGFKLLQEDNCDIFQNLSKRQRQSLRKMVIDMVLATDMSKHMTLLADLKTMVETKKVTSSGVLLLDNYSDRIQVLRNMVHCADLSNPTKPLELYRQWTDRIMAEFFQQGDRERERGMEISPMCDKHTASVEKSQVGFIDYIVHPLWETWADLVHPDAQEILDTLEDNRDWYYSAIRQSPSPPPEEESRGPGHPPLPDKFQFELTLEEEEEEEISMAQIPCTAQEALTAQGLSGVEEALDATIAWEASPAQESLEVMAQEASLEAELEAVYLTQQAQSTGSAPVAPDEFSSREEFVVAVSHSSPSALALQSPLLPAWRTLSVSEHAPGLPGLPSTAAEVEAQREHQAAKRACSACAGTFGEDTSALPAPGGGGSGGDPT

`CNc1nc(Cl)nc(NC(C)(C)C)n1`: the IC50 in data set [1] worked out at 245 nM.
`CN(C)c1nc(Cl)nc(NC2(C#N)CCCCC2)n1` came in with an IC50 in data set [1] of 668 nM.
`CONc1nc(Cl)nc(NC2(C#N)CCCCC2)n1` registered an IC50 in data set [1] of 165 nM.
Compound `CNc1nc(NC2(C#N)CCCC(C)C2)nc(-n2cncn2)n1` (mixture of isomers) had an IC50 in data set [1] of 0.2 nM. The CLint scaled in data set [2] amounted to 96 mL/min/kg.
For `CNc1nc(NC2(C#N)CCCCC2)nc(-n2cnc3ccccc32)n1`, the results for the IC50 in data set [1] and in data set [3] were 12 nM and greater than 1000 nM, respectively.
For `CNc1nc(NC2CCCC2)nc(NC2(C#N)CCCCC2)n1`, the IC50 in data set [1] is 59 nM; in data set [3] it was greater than 5000 nM.
Consider `CNc1nc(Nc2ccccc2)nc(NC2(C#N)CCCCC2)n1`, for which the IC50 in data set [1] is 56 nM; in data set [3] it was greater than 5000 nM.
Regarding `CNc1nc(N)nc(NC2(C#N)CCCCC2)n1`, in data set [1], the IC50 was greater than 1000 nM.
`C#CC1(Nc2nc(Cl)nc(NC)n2)CCCCC1` returned an IC50 in data set [1] of 149 nM.
`C#CC(CC)(CC)Nc1nc(NC)nc(-n2cncn2)n1` registered a half-inhibitory concentration (IC50) in data set [1] of 2.7 nM. Besides, in data set [2], the CLint scaled is 22 mL/min/kg.
As for `CNc1nc(Cl)nc(NC2CCCCC2)n1`, in data set [1], the IC50 was found to be 104 nM.
On to `CNc1nc(NC2(C#N)CCCCC2)nc(OC)n1`, for which the IC50 in data set [1] came to 19 nM; in data set [3] it was 521 nM. For the same compound, in data set [2], the CLint scaled was determined as 196 mL/min/kg.
Consider `CNc1nc(C#N)nc(NC2(C#N)CCCCC2)n1`, for which the IC50 in data set [1] was 38 nM; in data set [3], greater than 1000 nM. Moreover, in data set [2], the CLint scaled is 122 mL/min/kg.
The compound `CNc1nc(Cl)nc(NC2(C#N)CCCCCC2)n1` yielded an IC50 in data set [1] of 44 nM.
Compound `CCNc1nc(Cl)nc(NC2(C#N)CCCCC2)n1` gave an IC50 in data set [1] of 232 nM.
As for `CNc1nc(NC2(C#N)CCCCC2)nc(C2CC2)n1`, the IC50 came to 19 nM in data set [1] and 539 nM in data set [3]. For the same compound, the CLint scaled in data set [2] came to 276 mL/min/kg.
Turning to `CNc1nc(NC2(C#N)CCCCC2)nc(N(C)C)n1`, the IC50 in data set [1] is 18 nM; in data set [3], greater than 5000 nM. Besides, the CLint scaled in data set [2] amounted to 276 mL/min/kg.
In the same order, the values of `CNc1nc(NC2(C#N)CCCCC2)nc(SC)n1` are 4.4 nM, 46 nM and 579 mL/min/kg.
For the compound `CN(c1nc(N)nc(Cl)n1)C1(C#N)CCCCC1`, the midpoint of inhibition in data set [1], the IC50, lay at 563 nM.
The same measure, in the same setting: with `CCC(C)(CC)Nc1nc(Cl)nc(NC)n1` the figure was 156 nM.
Consider `CNc1nc(Cl)nc(NC2(C#N)CCCCC2)n1`, for which the IC50 in data set [1] came to 40 nM; in data set [3] it was 1070 nM. In addition, the CLint scaled in data set [2] is 867 mL/min/kg.
With `CNc1nc(Cl)nc(NC2(C#N)CCCC2)n1`, in data set [1], half-maximal inhibition (IC50) required 54 nM.
As for `N#CC1(Nc2nc(Cl)nc(NC3CC3)n2)CCCCC1`, in data set [1], the IC50 came to 126 nM.
Same read-out and setting: in the case of `CCCC(C#N)(CCC)Nc1nc(Cl)nc(NC)n1` it was 60 nM.
On to `CNc1nc(NC)nc(NC2(C#N)CCCCC2)n1`, for which the IC50 in data set [1] was 153 nM; in data set [3], greater than 1000 nM. Moreover, in data set [2], the CLint scaled worked out at 210 mL/min/kg.
Take `CNc1nc(Cl)nc(NC(C)(C)C#N)n1`: in data set [1], inhibition was half-maximal at 160 nM (IC50).
As to `CNc1nc(NC2(C#N)CCCCC2)nc(-n2cccn2)n1`, the IC50 was 3.6 nM in data set [1] and greater than 5000 nM in data set [3]. Also, in data set [2], the CLint scaled came to 103 mL/min/kg.
Consider `CCCC(C#N)(CCC)Nc1nc(NC)nc(-n2cncn2)n1`, for which the IC50 in data set [1] turned out to be 6.5 nM. In addition, the CLint scaled in data set [2] amounted to 32 mL/min/kg.
As for `CNc1nc(NC2(C#N)CCCCC2)nc(N2CCCC2)n1`, the IC50 is 38 nM in data set [1] and greater than 5000 nM in data set [3]. The CLint scaled in data set [2] was greater than 276 mL/min/kg.
`CNc1nc(NC2(C#N)CCC(C)CC2)nc(-n2cncn2)n1` (mixture of isomers) yielded an IC50 in data set [1] of 1.6 nM. Besides, the CLint scaled in data set [2] came to 37 mL/min/kg.
Regarding `CNc1nc(NC2(C#N)CCCCC2)nc(-n2cnc(C#N)n2)n1`, the IC50 in data set [1] was 4.9 nM; in data set [3], greater than 5000 nM. In data set [2], the CLint scaled was 210 mL/min/kg.
In the case of `CCC(C#N)(CC)Nc1nc(Cl)nc(NC)n1`, the IC50 in data set [1] is 87 nM.
`N#CC1(Nc2nc(N)nc(Cl)n2)CCCCC1`: in data set [1], the IC50 worked out at 1040 nM.
